Active and inactive are the calls of the source. No cut-off for these calls is given here.
Experiments:
Details in all cases: Mus musculus
NIH3T3 [1] = assay: Inhibitory activity against growth of vis-sis transformed NIH 3T3 cells at 1 mM; IA means inactive; format: functional, cell-based
NIH3T3 [2] = assay: Inhibitory activity against growth of wild type NIH 3T3 cells at 1 mM; format: functional
NIH3T3 [3] = assay: Inhibitory activity against growth of wild type NIH 3T3 cells at 1 mM; IA means inactive; format: functional, cell-based
NIH3T3 [4] = assay: Inhibitory concentration against growth of vis-sis transformed NIH 3T3 cells at 1 mM; IA means inactive; format: functional, cell-based
NIH3T3 [5] = assay: Inhibitory concentration against growth of wild type NIH 3T3 cells with inositol; format: functional, cell-based
NIH3T3 [6] = assay: Inhibitory concentration against growth of vis-sis transformed NIH 3T3 cells with inositol; format: functional, cell-based
NIH3T3 [7] = assay: Inhibitory concentration against growth of vis-sis transformed NIH 3T3 cells without inositol; format: functional, cell-based
NIH3T3 [8] = assay: Inhibitory concentration against growth of wild type NIH 3T3 cells without inositol; format: functional, cell-based

| SMILES | inhibition (NIH3T3 [1]) | inhibition at 1000 µM (NIH3T3 [2]) | inhibition (NIH3T3 [3]) | inhibition (NIH3T3 [4]) | IC50 (NIH3T3 [5]) | IC50 (NIH3T3 [6]) | IC50 (NIH3T3 [7]) | IC50 (NIH3T3 [8]) |
| --- | --- | --- | --- | --- | --- | --- | --- | --- |
| O=P(O)(O)CC1C(O)[C@H](O)C(O)[C@@H](O)C1O (some centres undefined) | inactive | 30% |  |  |  |  |  |  |
| COP(=O)(CC1C(O)[C@H](O)C(O)[C@@H](O)C1O)OC (some centres undefined) | inactive | 30% |  |  |  |  |  |  |
| C=C1C(O)[C@H](O)C(O)[C@@H](O)C1O (some centres undefined) |  |  | inactive | inactive |  |  |  |  |
| OCC1C(O)C(O)C(O)C(O)C1O (centres undefined) |  |  |  |  | 4.3 mM | 5.5 mM | 10 mM | 23.8 mM |
| OC1C(O)C(O)C(CI)C(O)C1O (centres undefined) |  |  |  |  | 43 mM | 56.2 mM | 19.9 mM | 23.8 mM |

Reference: ChEMBL document CHEMBL1126510, “Synthesis of D-3-deoxy-3-phosphonomethyl-myo-inositol and its dimethyl ester - compounds of use in studying the ptdins-3-kinase signalling pathway” (Bioorg Med Chem Lett, 1993)
